Experimental data: ChEMBL document CHEMBL1147657, “Indanesulfonamides as carbonic anhydrase inhibitors. Toward structure-based design of selective inhibitors of the tumor-associated isozyme CA IX” (J Med Chem, 2006)

Target: Carbonic anhydrase 9 (Homo sapiens, UniProt Q16790)

Ki | SMILES
33 nM | NS(=O)(=O)c1ccc2c(c1)CC(NC(=O)c1c(F)c(F)c(F)c(F)c1F)C2 (configuration not stated)
3.7 nM | CCCCCCCCCC(=O)NC1Cc2ccc(S(N)(=O)=O)cc2C1 (configuration not stated)
